Columns and labels:
[1] = system: human gastric cancer MKN45 cells; assay: MKN45 orthotopic xenograft (metastasis); format: in vivo, mouse; settings: 5-FU group, dose not given
Excerpt: For the MKN45 orthotopic xenograft experiment, human gastric cancer MKN45 cells (Japanese Cancer Research Bank, JCRB, Tokyo, Japan) were inoculated into donor BALB/C nude mice. When the tumor size reached the size of 600-800 mm3, the donor mice were euthanized, and the tumor was excised through sterile surgical procedure. The tumors were cut into fragments the size of 1×1×1 mm and implanted into the wall of great gastric curvature of recipient mice through sterile surgery under isoflurane anesthesia. 7 days after the surgery, recipient mice with orthotopic tumors were randomized into groups according to body weight and dosing was commenced. huAbF46-H4-A1 (IgG2 Fc) was injected into a vein once a week for 9 weeks. At the end of the in vivo study, orthotopic tumor weight was recorded and metastasis to the other organ was checked by macroscopic examination.

[2] = system: breast cancer cell line HCC1806; assay: Combination cell viability CTG assay, HCC1806; format: cell-based; settings: HCC1806, 72 hours, FIG. 17
Protocol: (§1) Cell proliferation in response to antibody treatment in vitro was assessed by a CTG (Promega) assay according to manufacturer's instructions. EBC1, HT-29, BT-474, HCC1806, HCC1954 and MKN45 cells were respectively plated at a density of 5×10^3 cells per well in FBS 10% (v/v) RPMI 1640 medium (Gibco) onto a 96-well plate (BD). The HT-29 (HTB-38), BT-474 (HTB-20), HCC1806 (CRL-2335) and HCC1954 (CRL-2338) cell lines were all purchased from ATCC. MKN45 (JCRB0254) and EBC1 (JCRB0820) cell lines were purchased from the Health Science Research Resource Bank. After 24 hours incubation, the c-Met targeting antibody huAbF46-H4-A1 (IgG2 Fc) was added alone or in combination with another drug (lapatinib, regorafenib or vemurafenib) diluted in 10% FBS (v/v) RPMI medium. Lapatinib, regorafenib and vemurafenib were purchased from Selleck Chemicals.
(§2) After 72 hours incubation, 100 μL of the CTG reagent (Promega) was added to each well followed by incubation at 37° C. for 30 minutes. The luminescence was measured using an Envision Multilabel Plate Reader (Perkin Elmer).

[3] = system: breast cancer cell line HCC1954; assay: Combination cell viability CTG assay, HCC1954; format: cell-based; settings: HCC1954, 72 hours, FIG. 18
Protocol: as §1, §2

[4] = system: colorectal cancer cell line HT29; assay: Combination cell viability CTG assay, HT29; format: cell-based; settings: HT29, 72 hours, FIG. 19
Protocol: as §1, §2

[5] = system: breast cancer cell line BT-474; assay: Combination cell viability CTG assay, BT-474; format: cell-based; settings: BT-474, 72 hours
Protocol: as §1
For the combination treatment of each experiment, IC20 concentration of one drug (drug A) and differing amounts of the other drug (drug B) were treated to see if the efficacy of drug B is improved by combi-treatment with drug A in a dose-dependent manner (see FIGS. 16-22). After 72 hours incubation, 100 μL of the CTG reagent (Promega) was added to each well followed by incubation at 37° C. for 30 minutes. The luminescence was measured using an Envision Multilabel Plate Reader (Perkin Elmer).

[6] = system: MHCC97H (human liver cancer cell line); assay: MHCC97H xenograft model; format: in vivo, mouse; settings: 30 mg/kg p.o. q.d. x 4 weeks
Protocol: The antitumor activity of huAbF46-H4-A1 (IgG2 Fc) was evaluated in a BALB/C nude mouse MHCC97H (human liver cancer cell line) xenograft model (referring to Example 16.2). Approximately 3 million MHCC97H cells in 100 μL of serum-free media were injected via s.c. to each of the 140 mice under anesthesia by 1-2% isoflurane. Ten days after subcutaneous inoculation with MHCC97H tumor cells, dosing commenced in the following treatment groups: 0 (PBS vehicle), 0.2, 1, 5 or 10 mg/kg huAbF46-H4-A1 (IgG2 Fc) i.v., q.w.×4 weeks; 30 mg/kg sorafenib p.o., q.d.×4 weeks (positive control). Each group consisted of 15 mice. Tumor volumes and body weights were measured two to three times a week for total study period about 4 weeks. The tumor volume (V) was calculated as follows: V (mm^3)={long axis length (mm)×(short axis length (mm))^2}/2.

O=c1[nH]cc(F)c(=O)[nH]1 [Antibody 5-FU, 5-FU, reference compound]
Number of metastasis lesion [1]: 0

CS(=O)(=O)CCNCc1ccc(-c2ccc3ncnc(Nc4ccc(OCc5cccc(F)c5)c(Cl)c4)c3c2)o1 [lapatinib]
anti-tumor efficacy (cell viability) when co-treated with huAbF46-H4-A1 (IgG2 Fc) [2]: significantly improved
anti-tumor efficacy (cell viability) when co-treated with huAbF46-H4-A1 (IgG2 Fc) [3]: significantly improved
anti-tumor efficacy (cell viability) when co-treated with huAbF46-H4-A1 (IgG2 Fc) [4]: significantly improved
anti-tumor efficacy (cell viability) when co-treated with huAbF46-H4-A1 (IgG2 Fc) ([5]; FIG. 16): significantly improved

CNC(=O)c1cc(Oc2ccc(NC(=O)Nc3ccc(Cl)c(C(F)(F)F)c3)c(F)c2)ccn1 [regorafenib]
anti-tumor efficacy (cell viability) when co-treated with huAbF46-H4-A1 (IgG2 Fc) ([5]; FIG. 20): significantly improved

CNC(=O)c1cc(Oc2ccc(NC(=O)Nc3ccc(Cl)c(C(F)(F)F)c3)cc2)ccn1 [sorafenib, reference compound]
tumor growth [6]: significant inhibition of MHCC97H tumor growth

Reference: US9717715B2, “Method of combination therapy using an anti-C-Met antibody” (Samsung Electronics Co., Ltd., priority 2013, dated 2017)
